Legend:
DNA = test: Reactivity with DNA (general statement); type: binding, calf
Protocol: (§1) The covalent binding of the psoralens to DNA and RNA was studied. To achieve covalent binding, it is necessary to supply radiant energy (light) to the binding sites. These studies were carried out as follows:
(§2) The DNA and RNA used in the covalent binding studies have been described previously. Samples of each nucleic acid were prepared at a concentration of 25 ug/ml in 0.01 m Tris 0.001 M EDTA buffer. The radioactive-psoralen derivatives were added in a ratio of one psoralen for every three base pairs. The irradiation was carried out in one of the two following devices.
The low intensity irradiations were performed with a modified slide projector which was fitted with a 400 watt General Electric mercury vapor lamp (H 400 A 33-1/T16). The image of the arc was focused on the same cell, jacketed by a cobaltous nitrate solution which was also used for the high intensity irradiations. The light intensity delivered to the sample in this device was 4 to 6 mw/cm^2. The high intensity irradiations were carried out in a device containing two of the sam 400 watt General Electric mercury vapor lamps which were mounted on either side of a double walled sample chamber at a distance between centers of 4.0 cm. The chamber was cooled to 10° C. by continuous circulation of a temperature regulated solution of cobaltous nitrate (40% w/w). The cobalt solution served as an ultraviolet filter which allowed a maximum transmittance of 365 nm light and a window from approximately 340-380 nm. The intensity of the light at the surface of the inner sample chamber was approximately 100 mw/cm^2. The nucleic acid-psoralen mixture was placed in the inner chamber where it was continuously stirred throughout the irradiation. Aliquots of each solution (derivative plus nucleic acid) were taken at 20, 40 and 60 minutes. […] Finally, the optical density of the nucleic-acid psoralen mixture was taken and its radioactivity determined, thus giving the amount of derivative covalently bound to the DNA or RNA. […]

[1] = target: Drosophila melanogaster ribosomal RNA; test: Equilibrium dialysis, non-covalent binding to RNA; details: for Kd: 0.01 M Tris, non-covalent binding; for (PS)/(S) for RNA in Saturated Solution: occupied/unoccupied binding sites
Protocol: (§3) In order to establish the dissociation constants from DNA and RNA, the non-covalent binding was ascertained. Non-covalent binding determines the presence of the psoralen within the nucleic acid helix. Its presence is determined in the absence of any radiant energy. As noted before, radiant energy is necessary to activate the psoralen covalent binding reaction with nucleic acid base pairs.
(§4) To determine the non-covalent binding, Calf thymus DNA (Sigma Type I) was dissolved in a 0.01 M Tris 0.001 M EDTA pH 8.5 buffer at a concentration of 25 ug/ml. A quantity of this DNA solution was placed in a dialysis bag (pretreated by boiling in NaHCO3), and the various tritiated derivatives were added inside the bag in half the cases and outside the bag in the other half. The molar ratio of psoralen molecules to base pairs was approximately 1:25. The bags were placed in vials filled with 18 ml of buffer and put on a shaker for 48-60 hours. After this period, radioactivity was determined both inside and outside the bags and the optical density of the DNA solution measured. From this information, and the specific activity of each derivative, the amount of drug non-covalently bound to the DNA was determined. Binding of the derivatives to Drosophila melanogaster ribosomal RNA was measured in exactly the same manner.
(§5) The units of the dissociation constants are moles/liter. Solubilities and molar extinction coefficients (ε) were obtained in pure water, the equilibrium constants (KD) in 0.01 M Tris.

[2] = test system: RNA (Drosophila melanogaster ribosomal RNA); test: High intensity photoaddition (covalent binding) to RNA; details: 25 μg/ml RNA, psoralen:base pair 1:3
Protocol: as §1, §2
(§6) The low intensity irradiations were performed with a modified slide projector which was fitted with a 400 watt General Electric mercury vapor lamp (H 400 A 33-1/T16). The image of the arc was focused on the same cell, jacketed by a cobaltous nitrate solution which was also used for the high intensity irradiations. The light intensity delivered to the sample in this device was 4 to 6 mw/cm^2. The high intensity irradiations were carried out in a device containing two of the sam 400 watt General Electric mercury vapor lamps which were mounted on either side of a double walled sample chamber at a distance between centers of 4.0 cm. The chamber was cooled to 10° C. by continuous circulation of a temperature regulated solution of cobaltous nitrate (40% w/w). The cobalt solution served as an ultraviolet filter which allowed a maximum transmittance of 365 nm light and a window from approximately 340-380 nm. The intensity of the light at the surface of the inner sample chamber was approximately 100 mw/cm^2. The nucleic acid-psoralen mixture was placed in the inner chamber where it was continuously stirred throughout the irradiation. Aliquots of each solution (derivative plus nucleic acid) were taken at 20, 40 and 60 minutes. Each aliquot was then extracted twice with chloroform/iso-amyl alcohol (24:1) to remove unreacted psoralen followed by exhaustive dialysis against 0.01 M Tris, 0.001 M EDTA buffer. The successful extraction of unbound psoralen by the chloroform-isoamyl alcohol required the aqueous phase to be at least 0.15 M in NaCl. Finally, the optical density of the nucleic-acid psoralen mixture was taken and its radioactivity determined, thus giving the amount of derivative covalently bound to the DNA or RNA. Taking samples, at spaced time intervals also permitted an assessment of the kinetics of the covalent binding.

Calf thymus DNA = test: Equilibrium dialysis, non-covalent binding to DNA; details: for Kd: 0.01 M Tris, non-covalent binding; for DNA site saturation, one psoralen per base pairs: expected from KD and solubility; for (PS)/(S) for DNA in Saturated Solution: occupied/unoccupied binding sites; for times more strongly binding to DNA than methoxsalen: vs methoxsalen
Protocol: as §3, §4, §5

DNA (calf thymus) [3] = test: High intensity photoaddition (covalent binding) to DNA; details: 25 μg/ml DNA, psoralen:base pair 1:3
Protocol: as §1, §2, §6

[4] = Molar extinction coefficient in pure water; type: physicochemical
From the text: as §5

[5] = test system: vesicular stomatitis virus; type: cell-based, Vesicular stomatitis virus Indiana strain; details: for effectiveness in inactivation of vesicular stomatitis virus vs 4,5',8-trimethyl psoralen: high dose rates, e.g., 30 μg/ml
DNA (calf thymus) [6] = test: Low intensity photoaddition (covalent binding) to DNA; details: for A (footnote 1, shown as drawing 9) / B = percent of added psoralen covalently bound: 25 μg/ml DNA, psoralen:base pair 1:3; for moles of psoralen bound per mole of base pairs: 90 minutes irradiation
Protocol: as §1, §2
as §6, with “Aliquots of each solution (derivative plus nucleic acid) were taken at 20, 40 and 60 minutes.” left out

Solubility in pure water = type: physicochemical; details: pure water
From the text: In order to study solubilities and dissociation constants, it is most convenient to prepare tritiated derivatives of the psoralen compounds. Thus, well-known radiation counting methods may be utilized to monitor the presence of the psoralens in solutions, or in nucleic acids.
as §5

Compound	reactivity with DNA (DNA)	Kd [1]	(PS)/(S) for RNA in Saturated Solution [1]	A (footnote 1, shown as drawing 11) ([2]; 20 min irradiation)	B = percent of added psoralen covalently bound ([2]; 20 min irradiation)	A (footnote 1, shown as drawing 11) ([2]; 40 min irradiation)	B = percent of added psoralen covalently bound ([2]; 40 min irradiation)	A (footnote 1, shown as drawing 11) ([2]; 60 min irradiation)	B = percent of added psoralen covalently bound ([2]; 60 min irradiation)	Kd (Calf thymus DNA)	(PS)/(S) for DNA in Saturated Solution (Calf thymus DNA; saturated solution)	A (footnote 1, shown as drawing 10) (DNA (calf thymus) [3]; 20 min irradiation)	B = percent of added psoralen covalently bound (DNA (calf thymus) [3]; 20 min irradiation)	A (footnote 1, shown as drawing 10) (DNA (calf thymus) [3]; 40 min irradiation)	B = percent of added psoralen covalently bound (DNA (calf thymus) [3]; 40 min irradiation)	A (footnote 1, shown as drawing 10) (DNA (calf thymus) [3]; 60 min irradiation)	B = percent of added psoralen covalently bound (DNA (calf thymus) [3]; 60 min irradiation)	Extinction coefficient ε, 250 nm [4]	solubility (Solubility in pure water)	solubility (Solubility in pure water; molar)	also measured
Cc1oc2c(C)c3oc(=O)cc(C)c3cc2c1CO [4'-hydroxymethyl-4,5',8-trimethyl psoralen]	excellent reactivity with DNA	1000 µM	0.16	26.3	11.5%	24.8	12.1%	23.5	13.0%	290 µM	0.55	9.1	33.0%	9.2	32.6%	9.1	33.0%	25000 L/mol/cm	41 µg/mL	160 µM	DNA site saturation, one psoralen per base pairs (Calf thymus DNA; saturated solution): one psoralen per three base pairs; (PS)/(S) for DNA in Saturated Solution (Calf thymus DNA; saturated solution, listed as 4'-hydroxmethyl trioxsalen): 0.5; times more strongly binding to DNA than methoxsalen (Calf thymus DNA): 10 times; effectiveness in inactivation of vesicular stomatitis virus vs 4,5',8-trimethyl psoralen [5]: nearly one thousand times more effective; A (footnote 1, shown as drawing 9) (DNA (calf thymus) [6]; 5 min irradiation): 89.0; B = percent of added psoralen covalently bound (DNA (calf thymus) [6]; 5 min irradiation): 3.0%; A (footnote 1, shown as drawing 9) (DNA (calf thymus) [6]; 10 min irradiation): 59.6; B = percent of added psoralen covalently bound (DNA (calf thymus) [6]; 10 min irradiation): 4.6%; A (footnote 1, shown as drawing 9) (DNA (calf thymus) [6]; 30 min irradiation): 26.0; B = percent of added psoralen covalently bound (DNA (calf thymus) [6]; 30 min irradiation): 10.3%; A (footnote 1, shown as drawing 9) (DNA (calf thymus) [6]; 60 min irradiation): 19.5; B = percent of added psoralen covalently bound (DNA (calf thymus) [6]; 60 min irradiation): 13.8%; A (footnote 1, shown as drawing 9) (DNA (calf thymus) [6]; 90 min irradiation): 17.2; B = percent of added psoralen covalently bound (DNA (calf thymus) [6]; 90 min irradiation): 15.7%; moles of psoralen bound per mole of base pairs (DNA (calf thymus) [6]): 0.06 moles per mole of base pairs; remains free in the solution (DNA (calf thymus) [6]; after 90 minutes of irradiation): more than 80%
COCc1c(C)oc2c(C)c3oc(=O)cc(C)c3cc12 [4'-methoxymethyl-4,5',8-trimethyl psoralen]	excellent reactivity with DNA	1000 µM	0.037	264.2	1.2%	216.8	1.4%	183.4	1.6%	94 µM	0.39	14.1	21.3%	14.3	21.0%	13.8	21.7%	21000 L/mol/cm	10 µg/mL	37 µM	DNA site saturation, one psoralen per base pairs (Calf thymus DNA; saturated solution): one psoralen per three base pairs; (PS)/(S) for DNA in Saturated Solution (Calf thymus DNA; saturated solution, listed as 4'-methoxymethyl trioxsalen): 0.5; times more strongly binding to DNA than methoxsalen (Calf thymus DNA): 10 times; effectiveness in inactivation of vesicular stomatitis virus vs 4,5',8-trimethyl psoralen [5]: nearly one thousand times more effective
Cc1cc2cc3c(C)cc(=O)oc3c(C)c2o1 [trioxsalen, 4,5',8-trimethyl psoralen, reference compound]		100 µM	0.026	23.1	13.0%	21.6	13.9%	20.6	14.8%	56 µM	0.046	11.6	25.9%	10.6	28.3%	12.2	24.6%	18000 L/mol/cm	0.6 µg/mL	2.6 µM	one psoralen per n base pairs at equilibrium (best achievable) (Calf thymus DNA; saturated solution): ~20 base pairs; times stronger binding to DNA than 4'-hydroxymethyl trioxsalen (Calf thymus DNA; vs 4'-hydroxymethyl trioxsalen (trioxsalen binding)): 5 times; times stronger binding to DNA than 4'-methoxymethyl trioxsalen (Calf thymus DNA; vs 4'-methoxymethyl trioxsalen): 2 times; effect of increasing concentration on ability to inactivate the virus ([5]; FIG. 1, from 10 μg/ml to 30 μg/ml): no effect on its ability to inactivate the virus; rate of reaction with DNA / initial rate of photochemical binding (DNA (calf thymus) [6]): greater initial rate of photochemical binding than 4'-hydroxymethyl trioxsalen; A (footnote 1, shown as drawing 9) (DNA (calf thymus) [6]; 5 min irradiation): 19.7; B = percent of added psoralen covalently bound (DNA (calf thymus) [6]; 5 min irradiation): 15.5%; A (footnote 1, shown as drawing 9) (DNA (calf thymus) [6]; 10 min irradiation): 15.5; B = percent of added psoralen covalently bound (DNA (calf thymus) [6]; 10 min irradiation): 19.7%; A (footnote 1, shown as drawing 9) (DNA (calf thymus) [6]; 30 min irradiation): 13.7; B = percent of added psoralen covalently bound (DNA (calf thymus) [6]; 30 min irradiation): 22.1%; A (footnote 1, shown as drawing 9) (DNA (calf thymus) [6]; 60 min irradiation): 12.8; B = percent of added psoralen covalently bound (DNA (calf thymus) [6]; 60 min irradiation): 23.6%; A (footnote 1, shown as drawing 9) (DNA (calf thymus) [6]; 90 min irradiation): 10.6; B = percent of added psoralen covalently bound (DNA (calf thymus) [6]; 90 min irradiation): 28.5%; moles of psoralen bound per mole of base pairs (DNA (calf thymus) [6]): 0.09 moles per mole of base pairs

Reference: US4124598A, “Psoralens” (Hoffmann-La Roche Inc., priority 1976, dated 1978)
